Measurements published in US6737383B1, “Herbicidal oxadiazolidines” (priority 1999, dated 2004).

How the values were obtained:
[1] = tested on: pigweed; assay: Test B pre/postemergence pigweed; assay type: in vivo, Amaranthus retroflexus
How it was run: (§1)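 Response is a visual 0-to-10 score relative to untreated plants, where 0 means no effect and 10 means complete control, taken twelve to sixteen days after application. Treatments went onto soil at planting and onto foliage of 1- to 4-leaf plants, using a surfactant-containing non-phytotoxic solvent.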

[2] = tested on: soybean; assay: Test B pre/postemergence soybean; assay type: in vivo, Glycine max
How it was run: as §1

[3] = tested on: rape; assay: Test B pre/postemergence rape; assay type: in vivo, Brassica napus
How it was run: as §1

[4] = tested on: velvetleaf; assay: Test B pre/postemergence velvetleaf; assay type: in vivo, Abutilon theophrasti
How it was run: as §1

[5] = tested on: duck salad; assay: Test B flood test duck salad; assay type: in vivo, Heteranthera limosa
How it was run: (§2)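 Read-out is a visual response score from 0 (no effect) to 10 (complete control), assigned by comparison with untreated controls. Treatment was applied at the 2-leaf stage, and plants stayed in the greenhouse for twelve to sixteen days before scoring.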

[6] = tested on: sugar beet; assay: Test B pre/postemergence sugar beet; assay type: in vivo, Beta vulgaris
How it was run: as §1

[7] = tested on: crabgrass; assay: Test B pre/postemergence crabgrass; assay type: in vivo, Digitaria sanguinalis
How it was run: as §1

[8] = tested on: bedstraw; assay: Test B pre/postemergence bedstraw; assay type: in vivo, Galium aparine
How it was run: as §1

[9] = tested on: rice; assay: Test B flood test rice; assay type: in vivo, Oryza sativa
How it was run: as §2

[10] = tested on: surinam grass; assay: Test B pre/postemergence surinam grass; assay type: in vivo, Brachiaria decumbens
How it was run: as §1

[11] = tested on: bamyardgrass; assay: Test B flood test barnyardgrass; assay type: in vivo, Echinochloa crus-galli
How it was run: as §2

[12] = tested on: wild oat; assay: Test B pre/postemergence wild oat; assay type: in vivo, Avena fatua
How it was run: as §1

[13] = tested on: corn; assay: Test B pre/postemergence corn; assay type: in vivo, Zea mays
How it was run: as §1

[14] = tested on: smallflower flatsedge; assay: Test B flood test smallflower flatsedge; assay type: in vivo, Cyperus difformis
How it was run: as §2

[15] = tested on: cocklebur; assay: Test B pre/postemergence cocklebur; assay type: in vivo, Xanthium strumarium
How it was run: as §1

[16] = tested on: morningglory; assay: Test B pre/postemergence morningglory; assay type: in vivo, Ipomoea hederacea
How it was run: as §1

[17] = Postemergence, Rate 125 g/ha, scale of 0 to 10 where 0 is no effect and 10 is complete control
[18] = Postemergence, Rate 250 g/ha, scale of 0 to 10, 0 is no effect, 10 is complete control
[19] = Postemergence, Rate 500 g/ha, scale of 0 to 10 where 0 is no effect and 10 is complete control
[20] = Postemergence, Rate 1000 g/ha, scale 0 to 10 (0 no effect, 10 complete control)
[21] = Preemergence, Rate 125 g/ha, scale of 0 to 10 where 0 is no effect and 10 is complete control
[22] = Preemergence, Rate 250 g/ha, scale 0 to 10 (0 no effect, 10 complete control)
[23] = Preemergence, Rate 500 g/ha, scale of 0 to 10 where 0 is no effect and 10 is complete control
[24] = Rate 1000 g/ha, Preemergence, scale 0 to 10 (0 no effect, 10 complete control)
[25] = Pre-emergence, Rate 1000 g/ha, scale 0 to 10 (0 no effect, 10 complete control)
[26] = Rate 125 g/ha, under heading Pre-emergence, flood test species, visual evaluation after twelve to sixteen days
[27] = Rate 250 g/ha, Pre-emergence (flood test species), scale 0 to 10, 0 is no effect, 10 is complete control
[28] = Rate 500 g/ha, Pre-emergence section of Table B, 0 to 10 scale (0 no effect, 10 complete control)

COC(=O)C(C)n1c(=O)on(C(=O)N(c2ccc(F)cc2)C(C)C)c1=O (stereo not drawn) [Compound 616]
3: Redroot pigweed plant response rating [1, 20] | Rape plant response rating [3, 20] | Plant response rating, Rape [3, 23] | Cocklebur plant response rating [15, 20]
1: Plant response rating, Redroot pigweed [1, 19] | Redroot pigweed plant response rating [1, 21] | Plant response rating, Velvetleaf [4, 19] | Velvetleaf plant response rating [4, 20] | Plant response rating, Sugarbeets [6, 23] | Plant response rating, Crabgrass [7, 23] | B. signalgrass plant response rating [10, 18] | B. signalgrass plant response rating [10, 23]
5: Plant response rating, Soybean [2, 24] | Plant response rating, Velvetleaf [4, 24] | B. signalgrass plant response rating [10, 20]
0: Plant response rating, Redroot pigweed [1, 17] | Redroot pigweed plant response rating [1, 18] | Soybean plant response rating [2, 21] | Plant response rating, Soybean [2, 22] | Plant response rating, Soybean [2, 23] | Plant response rating, Rape [3, 17] | Rape plant response rating [3, 18] | Plant response rating, Rape [3, 19] | Rape plant response rating [3, 21] | Plant response rating, Rape [3, 22] | Plant response rating, Velvetleaf [4, 17] | Velvetleaf plant response rating [4, 18] | Velvetleaf plant response rating [4, 21] | Plant response rating, Velvetleaf [4, 22] | Ducksalad plant response rating [5, 25] | Ducksalad plant response rating (0 to 10 scale, 0 is no effect, 10 is complete control) [5, 26] | Ducksalad plant response rating [5, 27] | Ducksalad plant response rating [5, 28] | Plant response rating, Sugarbeets [6, 17] | Sugarbeets plant response rating [6, 18] | Sugarbeets plant response rating [6, 21] | Plant response rating, Sugarbeets [6, 22] | Crabgrass plant response rating [7, 21] | Plant response rating, Crabgrass [7, 22] | Plant response rating, Bedstraw [8, 17] | Bedstraw plant response rating [8, 18] | Bedstraw plant response rating [8, 21] | Plant response rating, Bedstraw [8, 22] | Bedstraw plant response rating [8, 23] | Rice plant response rating [9, 25] | Rice plant response rating (0 to 10 scale, 0 is no effect, 10 is complete control) [9, 26] | Rice plant response rating [9, 27] | Rice plant response rating [9, 28] | Plant response rating, B. signalgrass [10, 17] | B. signalgrass plant response rating [10, 21] | Plant response rating, B. signalgrass [10, 22] | Barnyardgrass plant response rating [11, 25] | Barnyardgrass plant response rating (0 to 10 scale, 0 is no effect, 10 is complete control) [11, 26] | Barnyardgrass plant response rating [11, 27] | Barnyardgrass plant response rating [11, 28] | Plant response rating, Wild oats [12, 17] | Wild oats plant response rating [12, 18] | Plant response rating, Wild oats [12, 19] | Wild oats plant response rating [12, 21] | Plant response rating, Wild oats [12, 22] | Plant response rating, Corn [13, 17] | Corn plant response rating [13, 18] | Plant response rating, Corn [13, 19] | Corn plant response rating [13, 20] | Corn plant response rating [13, 21] | Plant response rating, Corn [13, 22] | Plant response rating, Corn [13, 23] | S. Flatsedge plant response rating [14, 25] | S. Flatsedge plant response rating (0 to 10 scale, 0 is no effect, 10 is complete control) [14, 26] | S. Flatsedge plant response rating [14, 27] | S. Flatsedge plant response rating [14, 28] | Plant response rating, Cocklebur [15, 17] | Cocklebur plant response rating [15, 18] | Plant response rating, Cocklebur [15, 19] | Cocklebur plant response rating [15, 21] | Plant response rating, Cocklebur [15, 22] | Plant response rating, Cocklebur [15, 23] | Plant response rating, Cocklebur [15, 24] | Plant response rating, Morningglory [16, 17] | Morningglory plant response rating [16, 21] | Plant response rating, Morningglory [16, 22] | Plant response rating, Morningglory [16, 23] | Plant response rating, Morningglory [16, 24]
10: Plant response rating, Redroot pigweed [1, 23] | Plant response rating, Redroot pigweed [1, 24] | Plant response rating, Wild oats [12, 24] | Plant response rating, Morningglory [16, 19] | Morningglory plant response rating [16, 20]
7: Plant response rating, Sugarbeets [6, 24] | Plant response rating, Crabgrass [7, 19]
8: Plant response rating, Redroot pigweed [1, 22] | Crabgrass plant response rating [7, 20]
2: Plant response rating, Sugarbeets [6, 19] | Sugarbeets plant response rating [6, 20] | Plant response rating, Crabgrass [7, 17] | Plant response rating, Wild oats [12, 23] | Plant response rating, Corn [13, 24]
6: Plant response rating, Rape [3, 24] | Plant response rating, Crabgrass [7, 24] | Plant response rating, B. signalgrass [10, 24]
4: Soybean plant response rating [2, 18] | Plant response rating, Soybean [2, 19] | Soybean plant response rating [2, 20] | Plant response rating, Velvetleaf [4, 23] | Crabgrass plant response rating [7, 18] | Plant response rating, Bedstraw [8, 24] | Plant response rating, B. signalgrass [10, 19] | Morningglory plant response rating [16, 18]
